From patent US20090304813A1, “VIRUCIDAL COMPOSITIONS AND USES” (priority 2006, published 2009)

Columns and labels:
[1] = test system: Influenza A/Duck/MN/1525/81 (H5N1); parameters: species or system BALB/c mice; settings: mouse, in vivo
[2] = Tox controls of the oral treatment study in mice (Table 3); settings: 75 mg/kg/day p.o., bid × 5 beg −4 h; initial weight vs 18 h after final treatment

SMILES	Number of surviving mice per group at day 19 [1]	surviving mice per group at day 19, percent [1]	Tox Controls Mean Host Weight Change [2] [g]
CCOC(=O)C1=C[C@@H](OC(CC)CC)[C@H](NC(C)=O)[C@@H](N)C1 [Tamiflu ™, oseltamivir phosphate]	10/10 [100%]	10/10 [100%]	
NC(=O)c1ncn([C@@H]2O[C@H](CO)[C@@H](O)[C@H]2O)n1 [Ribavirin]			-0.8
